From US12173018B2, “Penicillin-binding protein inhibitors” (priority 2018, dated 2024)

What follows are molecules tested against E. coli PBP3 (Escherichia coli (strain K12), UniProt P0AD68) (assay: E. coli PBP3 Bocillin-FL fluorescence polarization competition binding assay). Conditions: not given.
Description: To determine the ability of boronic acid-based test PBP inhibitors to bind Penicillin Binding Proteins (PBPs), Bocillin-FL (fluorescently-labeled penicillin V; ThermoFisher Scientific) was used in a fluorescence polarization (FP) competition binding assay to assess inhibitor binding to PBP2, PBP3 or PBP4 from Escherichia coli. PBPs were cloned and purified as described previously (King, D. T, et al., ACS Infectious Diseases 2015, 1, 175-184). To establish assay conditions for competition binding, an enzyme titration/saturation binding experiment was initially performed. Bocillin-FL was prepared at 0.2 μM in a buffer comprised of 50 mM Hepes (pH 8.0), 300 mM NaCl and 5% (v/v) glycerol. Saturation binding was performed by mixing 40 μl of PBP solutions ranging in concentrations from 0-12 μM with 40 μl of the 0.2 μM Bocillin-FL solution, in individual wells of a black 384-well microplate. FP was measured immediately upon mixing (Excitation, 490 nm; Emission, 520 nm; g-factor, 0.96), using a Cytation3 (BioTek) microplate reader and measured continuously for up to 120 minutes. […] Assays (80 μl final volume) were performed with PBPs at a final concentration of 1.5 μM, Bocillin-FL at 0.1 μM and beta-lactam concentrations that ranged from 0-1000 μM. […] Bocillin-FL was added and the FP immediately measured for 60 minutes (90 minutes for PBP2). The beta-lactam potency was reported as the concentration of beta-lactam required to reduce binding of Bocillin-FL by […] (EC50). […] Binding assays for boronic acid PBP inhibitors were performed in an identical fashion.

Chain of E. coli PBP3 (P0AD68 whole entry): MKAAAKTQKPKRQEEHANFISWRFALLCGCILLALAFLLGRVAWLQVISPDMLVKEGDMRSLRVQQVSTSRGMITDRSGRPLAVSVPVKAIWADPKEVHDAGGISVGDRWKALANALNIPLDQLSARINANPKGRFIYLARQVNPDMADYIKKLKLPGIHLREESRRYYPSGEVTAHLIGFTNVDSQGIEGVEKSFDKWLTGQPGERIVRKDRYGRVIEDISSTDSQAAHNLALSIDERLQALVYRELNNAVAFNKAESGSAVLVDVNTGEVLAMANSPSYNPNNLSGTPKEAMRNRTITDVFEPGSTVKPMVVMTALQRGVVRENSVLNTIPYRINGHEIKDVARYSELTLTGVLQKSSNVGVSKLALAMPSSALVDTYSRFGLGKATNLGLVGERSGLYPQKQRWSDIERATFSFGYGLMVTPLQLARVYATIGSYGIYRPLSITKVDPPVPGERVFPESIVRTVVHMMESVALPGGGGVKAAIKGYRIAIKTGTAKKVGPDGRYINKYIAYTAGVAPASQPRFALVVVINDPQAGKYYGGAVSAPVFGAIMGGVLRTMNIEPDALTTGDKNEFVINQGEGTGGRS

Row | Compound | EC50
1 | CCN1CCN(C(=O)NC(C(=O)N[C@H]2Cc3cccc(C(=O)O)c3OB2O)[C@H](O)C(F)(F)F)C(=O)C1=O (mixture of isomers) [Example 157, (3R)-3-((3S)-2-(4-ethyl-2,3-dioxopiperazine-1-carboxamido)-4,4,4-trifluoro-3-hydroxybutanamido)-2-hydroxy-3,4-dihydro-2H-benzo[e][1,2]oxaborinine-8-carboxylic acid] | > 500 µM
2 | CCN1CCN(C(=O)NC(CC(=O)N[C@H]2Cc3cccc(C(=O)O)c3OB2O)c2cc(O)c(O)c(Br)c2)C(=O)C1=O (stereo partly drawn) [Example 42, (3R)-3-(3-(3-bromo-4,5-dihydroxyphenyl)-3-(4-ethyl-2,3-dioxopiperazine-1-carboxamido)propanamido)-2-hydroxy-3,4-dihydro-2H-benzo[e][1,2]oxaborinine-8-carboxylic acid] | 30 to 500 µM
3 | CCN1CCN(C(=O)NC(C(=O)N[C@H]2Cc3cccc(C(=O)O)c3OB2O)c2ccc(O)c(OCCNC(=O)OCc3ccccc3)c2)C(=O)C1=O (stereo partly drawn) [Example 50, (3R)-3-(2-(3-(2-(((benzyloxy)carbonyl)amino)ethoxy)-4-hydroxyphenyl)-2-(4-ethyl-2,3-dioxopiperazine-1-carboxamido)acetamido)-2-hydroxy-3,4-dihydro-2H-benzo[e][1,2]oxaborinine-8-carboxylic acid] | 30 to 500 µM
4 | CCN1CCN(C(=O)NC(C(=O)N[C@H]2Cc3cccc(C(=O)O)c3OB2O)c2cccc(OC)n2)C(=O)C1=O (stereo partly drawn) [Example 120, (3R)-3-(2-(4-ethyl-2,3-dioxopiperazine-1-carboxamido)-2-(6-methoxypyridin-2-yl)acetamido)-2-hydroxy-3,4-dihydro-2H-benzo[e][1,2]oxaborinine-8-carboxylic acid] | 30 to 500 µM
5 | CCN1CCN(C(=O)NC(C(=O)N[C@H]2Cc3cccc(C(=O)O)c3OB2O)C2CCCO2)C(=O)C1=O (stereo partly drawn) [Example 122, (3R)-3-(2-(4-ethyl-2,3-dioxopiperazine-1-carboxamido)-2-(tetrahydrofuran-2-yl)acetamido)-2-hydroxy-3,4-dihydro-2H-benzo[e][1,2]oxaborinine-8-carboxylic acid] | 30 to 500 µM
6 | CCN1CCN(C(=O)N[C@H](C(=O)N[C@H]2Cc3ccc(F)c(C(=O)O)c3OB2O)c2ccsc2)C(=O)C1=O [Example 139, (R)-3-((S)-2-(4-ethyl-2,3-dioxopiperazine-1-carboxamido)-2-(thiophen-3-yl)acetamido)-7-fluoro-2-hydroxy-3,4-dihydro-2H-benzo[e][1,2]oxaborinine-8-carboxylic acid] | 30 to 500 µM
7 | CCN1CCN(C(=O)N[C@@H](C(=O)N[C@H]2Cc3cccc(C(=O)O)c3OB2O)[C@H](C)OC)C(=O)C1=O [Example 146, (R)-3-((2R,3S)-2-(4-ethyl-2,3-dioxopiperazine-1-carboxamido)-3-methoxybutanamido)-2-hydroxy-3,4-dihydro-2H-benzo[e][1,2]oxaborinine-8-carboxylic acid] | 30 to 500 µM
8 | CCN1CCN(C(=O)N[C@@H](C(=O)N[C@H]2Cc3ccc(F)c(C(=O)O)c3OB2O)[C@H](O)C(F)(F)F)C(=O)C1=O [Example 158, (R)-3-((2R,3S)-2-(4-ethyl-2,3-dioxopiperazine-1-carboxamido)-4,4,4-trifluoro-3-hydroxybutanamido)-7-fluoro-2-hydroxy-3,4-dihydro-2H-benzo[e][1,2]oxaborinine-8-carboxylic acid] | 30 to 500 µM
9 | CCN1CCN(C(=O)NC(C(=O)N[C@H]2Cc3ccc(F)c(C(=O)O)c3OB2O)c2cscn2)C(=O)C1=O (stereo partly drawn) [Example 165, (3R)-3-(2-(4-ethyl-2,3-dioxopiperazine-1-carboxamido)-2-(thiazol-4-yl)acetamido)-7-fluoro-2-hydroxy-3,4-dihydro-2H-benzo[e][1,2]oxaborinine-8-carboxylic acid] | 30 to 500 µM
10 | CCN1CCN(C(=O)NC(C(=O)N[C@H]2Cc3cc(F)c(F)c(C(=O)O)c3OB2O)c2csc(N)n2)C(=O)C1=O (stereo partly drawn) [Example 175, (3R)-3-(2-(2-aminothiazol-4-yl)-2-(4-ethyl-2,3-dioxopiperazine-1-carboxamido)acetamido)-6,7-difluoro-2-hydroxy-3,4-dihydro-2H-benzo[e][1,2]oxaborinine-8-carboxylic acid] | 30 to 500 µM

Same assay, conditions: fluorescence polarization competition binding with Bocillin-FL; read-out: E. coli K12 PBP3 Potency

Row | Compound | EC50
11 | CCN1CCN(C(=O)NC(C(=O)N[C@H]2Cc3cccc(C(=O)O)c3OB2O)c2cccc(O)c2O)C(=O)C1=O (stereo partly drawn) [Example 44, (3R)-3-(2-(2,3-dihydroxyphenyl)-2-(4-ethyl-2,3-dioxopiperazine-1-carboxamido)acetamido)-2-hydroxy-3,4-dihydro-2H-benzo[e][1,2]oxaborinine-8-carboxylic acid] | > 500 µM
12 | CCCN1CCN(C(=O)N[C@@H](C(=O)N[C@H]2Cc3ccc(F)c(C(=O)O)c3OB2O)[C@@H](C)O)C(=O)C1=O [Example 133, (R)-3-((2R,3R)-2-(2,3-dioxo-4-propylpiperazine-1-carboxamido)-3-hydroxybutanamido)-7-fluoro-2-hydroxy-3,4-dihydro-2H-benzo[e][1,2]oxaborinine-8-carboxylic acid] | > 500 µM
13 | CCN1CCN(C(=O)N[C@H](C(=O)N[C@H]2Cc3cccc(C(=O)O)c3OB2O)[C@H](C)OC)C(=O)C1=O [Example 147, (R)-3-((2S,3S)-2-(4-ethyl-2,3-dioxopiperazine-1-carboxamido)-3-methoxybutanamido)-2-hydroxy-3,4-dihydro-2H-benzo[e][1,2]oxaborinine-8-carboxylic acid] | > 500 µM
14 | CCN1CCN(C(=O)N[C@H](C(=O)N[C@H]2Cc3ccc(F)c(C(=O)O)c3OB2O)[C@H](O)C(F)(F)F)C(=O)C1=O [Example 159, (R)-3-((2S,3S)-2-(4-ethyl-2,3-dioxopiperazine-1-carboxamido)-4,4,4-trifluoro-3-hydroxybutanamido)-7-fluoro-2-hydroxy-3,4-dihydro-2H-benzo[e][1,2]oxaborinine-8-carboxylic acid] | > 500 µM
15 | CCN1CCN(C(=O)N[C@@H](C(=O)N[C@H]2Cc3ccc(F)c(C(=O)O)c3OB2O)[C@H](O)C(F)F)C(=O)C1=O [Example 163, (R)-3-((2R,3S)-2-(4-ethyl-2,3-dioxopiperazine-1-carboxamido)-4,4-difluoro-3-hydroxybutanamido)-7-fluoro-2-hydroxy-3,4-dihydro-2H-benzo[e][1,2]oxaborinine-8-carboxylic acid] | < 30 µM
16 | CCN1CCN(C(=O)N[C@H](C(=O)N[C@H]2Cc3ccc(F)c(C(=O)O)c3OB2O)[C@H](O)C(F)F)C(=O)C1=O [Example 164, (R)-3-((2S,3S)-2-(4-ethyl-2,3-dioxopiperazine-1-carboxamido)-4,4-difluoro-3-hydroxybutanamido)-7-fluoro-2-hydroxy-3,4-dihydro-2H-benzo[e][1,2]oxaborinine-8-carboxylic acid] | > 500 µM
17 | CCN1CCN(C(=O)N[C@@H](C(=O)N[C@H]2Cc3cccc(C(=O)O)c3OB2O)[C@H](O)C(F)F)C(=O)C1=O [Example 173, (R)-3-((2R,3S)-2-(4-ethyl-2,3-dioxopiperazine-1-carboxamido)-4,4-difluoro-3-hydroxybutanamido)-2-hydroxy-3,4-dihydro-2H-benzo[e][1,2]oxaborinine-8-carboxylic acid] | > 500 µM
18 | CCN1CCN(C(=O)N[C@H](C(=O)N[C@H]2Cc3cccc(C(=O)O)c3OB2O)[C@H](O)C(F)F)C(=O)C1=O [Example 174, (R)-3-((2S,3S)-2-(4-ethyl-2,3-dioxopiperazine-1-carboxamido)-4,4-difluoro-3-hydroxybutanamido)-2-hydroxy-3,4-dihydro-2H-benzo[e][1,2]oxaborinine-8-carboxylic acid] | > 500 µM
